In paper PMC9606171, “Synthetic PPAR Agonist DTMB Alleviates Alzheimer’s Disease Pathology by Inhibition of Chronic Microglial Inflammation in 5xFAD Mice” (Neurotherapeutics, 2022):

What was measured:
PPARα = biological target: T1, PPARα (Homo sapiens, UniProt Q07869); assay: Gal4-transactivation luciferase assay in HEK293A cells, PPARα LBD; assay type: cell-based
T1 construct: pcDNA5-GAL4-PPAR LBD, pG5-luc, and Rluc vector (as control) were transfected into HEK293A cells; expressed in transfected cells; host or cells: HEK293A
T1 sequence (Q07869 239-466 limits assumed): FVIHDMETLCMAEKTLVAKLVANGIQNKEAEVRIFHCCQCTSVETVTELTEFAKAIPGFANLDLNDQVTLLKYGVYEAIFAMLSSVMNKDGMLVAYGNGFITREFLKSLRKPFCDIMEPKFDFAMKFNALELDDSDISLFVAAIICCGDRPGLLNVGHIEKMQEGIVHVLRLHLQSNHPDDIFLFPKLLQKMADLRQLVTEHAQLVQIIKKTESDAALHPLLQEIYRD
Procedure: HEK293A cells were transfected with the GAL4-reporter plasmids and pGL4.74 (Promega, Madison, WI, USA) as an internal standard through electroporation using a Neon Transfection System (Invitrogen, Carlsbad, CA, USA). All vector materials were provided by Professor Yuichiro Kanno at Toho University. Cells were treated with DTMB and each positive control compound for 24 h after overnight incubation. Cells were then harvested and resuspended in luciferase lysis buffer (Promega), followed by incubation on ice for 10 min. Cell debris was removed by centrifugation at 20,000 × g at 4 °C for 10 min, and the supernatants were used for luciferase assay. Using a dual-luciferase reporter assay system (Promega), luciferase activities were measured according to the manufacturer’s instructions. Experimental firefly luciferase activities were normalized against those of Renilla luciferase.

[1] = test system: RAW 264.7 macrophage cells; assay: Griess assay, LPS-induced NO production; assay type: cell-based; conditions: LPS (1 µg/mL), 24 h
Procedure: Griess assay (Promega) was performed under manufacturer’s instruction to measure the concentration of nitrite after inducing the inflammatory response in RAW 264.7 macrophage cells by LPS treatment. The well-known PPAR selective agonists, such as WY14643 (PPARα), GW501516 (PPAR-β/δ), and rosiglitazone (PPARγ), were used as positive controls.

[2] = Body and tissue weight after 3 months of treatment; assay type: in vivo; conditions: 3 months treatment; vehicle- vs DTMB-treated mice
Procedure: (§1) DTMB was synthesized from Daejung Chemicals (Korea) and was dissolved in dimethyl sulfoxide (Sigma Aldrich, St. Louis, MO, USA) for cell-based experiments. To evaluate the effects of DTMB on 5xFAD mice, DTMB (10 mg/kg) and vehicle (1% carboxymethylcellulose and 10% DMSO) were orally administrated to four groups (wild-type, wild-type + DTMB, 5xFAD, and 5xFAD + DTMB) with a 6 day per week for 3 months.

[3] = biological target: T2, recombinant human PPARα LBD (Homo sapiens, UniProt Q07869); assay: CNBr-bead pull down assay, PPARα LBD; assay type: binding; conditions: drug conjugated CNBr beads
T2 sequence (Q07869 239-466 limits assumed): T1 sequence (Q07869 239-466 limits assumed)
Procedure: (§2) CNBr Sepharose 4B beads were prepared and activated according to the instruction. 100 mg of CNBr activated Sepharose 4B beads were incubated with drugs or DMSO for 18 h at 4 °C. The drug conjugated beads reacted to his-tagged recombinant PPAR α, β/δ, and γ protein. After 24 h of incubation, we confirmed whether recombinant protein binds to the drug conjugated bead through western blotting experiment.

[4] = biological target: T3, recombinant human PPARγ LBD (Homo sapiens, UniProt P37231); assay: CNBr-bead pull down assay, PPARγ LBD; assay type: binding; conditions: drug conjugated CNBr beads
T3 sequence (P37231 238-503 limits assumed): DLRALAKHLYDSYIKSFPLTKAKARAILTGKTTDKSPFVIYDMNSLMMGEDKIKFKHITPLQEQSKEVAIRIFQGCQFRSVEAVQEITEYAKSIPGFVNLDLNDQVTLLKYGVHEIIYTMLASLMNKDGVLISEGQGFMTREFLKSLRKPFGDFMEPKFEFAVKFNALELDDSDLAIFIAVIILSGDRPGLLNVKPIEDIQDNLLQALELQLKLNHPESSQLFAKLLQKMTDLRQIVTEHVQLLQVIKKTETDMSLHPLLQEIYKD
Procedure: as §2

primary microglia = assay: ELISA of proinflammatory cytokines, primary microglia; assay type: cell-based, mice; conditions: LPS or pre-aggregated human Aβ1-42, 24 h
Procedure: Primary microglia culture was conducted as described in a previous study. Mice at postnatal day 3 mice were used for the preparation of primary microglia. Newborn mice pups were anesthetized in ice and then sacrificed. Isolated cortex and hippocampus were collected after removing the meninges. Brain tissues were dissociated by incubating in HBSS (Gibco, Gaithersburg, MD, USA) with trypsin (2.5%) for 15 min. Cell homogenates were then incubated in M-CSF (20 ng/mL, R&D Systems) supplemented with DMEM-F12 medium with 10% fetal bovine serum, 10% horse serum, 1% GlutaMAX (Gibco, MD, USA), and 1% penicillin/streptomycin (Welgene, Korea). After 10 days, microglia were purified through shaking at 260 rpm for 2 h.
We measured cytokine level (TNF-α, IL-1β, and IL-6) in the media of LPS (1 μg/mL) and human Aβ1-42 (5 μg/mL)-treated BV2 microglia cells and primary microglia. Human Aβ1-42 (AnaSpec, Fremont, CA, USA) were pre-aggregated in the incubator for 24 h before the treatment to the cells. BV2 cells and primary microglia cells were seeded on 12-well plates (SPL) at a density of 1 × 10^5 cells/well cultured in 1 mL of complete media. After 12 h, LPS or human Aβ1-42 were treated to cells and were further incubated for 24 h with DTMB. […]

BV2 microglia cells = assay: ELISA of proinflammatory cytokines, BV2 microglia cells; assay type: cell-based, mouse; conditions: LPS or pre-aggregated human Aβ1-42, 24 h
Procedure: We measured cytokine level (TNF-α, IL-1β, and IL-6) in the media of LPS (1 μg/mL) and human Aβ1-42 (5 μg/mL)-treated BV2 microglia cells and primary microglia. Human Aβ1-42 (AnaSpec, Fremont, CA, USA) were pre-aggregated in the incubator for 24 h before the treatment to the cells. BV2 cells and primary microglia cells were seeded on 12-well plates (SPL) at a density of 1 × 10^5 cells/well cultured in 1 mL of complete media. After 12 h, LPS or human Aβ1-42 were treated to cells and were further incubated for 24 h with DTMB. ELISA experiments were conducted by using mouse TNF-α ELISA kit (Invitrogen, BMS607-3TEN), mouse IL-1β ELISA kit (Invitrogen, BMS6002), and mouse IL-6 ELISA kit (Invitrogen, BMS603-2) according to the manufacturer’s instruction.

5xFAD mice = assay: Y-maze test in 5xFAD mice; assay type: in vivo; conditions: 10 mg/kg orally, 3 months
Procedure: as §1
The Y-maze test was conducted using a black y-shaped maze apparatus that has three equal-sized arms (40 × 3 × 12 cm) separated at 120° angles. The mice were placed into the same side of the arm at every trial and freely moved for 8 min under the dim light conditions (50 lx). To measure spatial memory, the number of arm entries to other sides was measured. The percentage of spontaneous alternation was calculated using the following formula: 100×(ActualAlteration/(Total#ofarmentrance-2)) . Sample sizes were 20–25 mice per group.

relative luciferase activity (PPARα; HEK293A, 24 h, various concentrations): increased luciferase activity
transactivation (luciferase activity) compared to positive control (PPARα; versus WY14643): stronger than the positive control
body or tissue weight [2]: no changes
binding to PPAR LBD (pull-down, western blot) ([3]; PPARα LBD): binds
binding to PPAR LBD (pull-down, western blot) [4]: binds
SMILES: COc1ccc(-c2cc(=O)oc3c(C)c(OC(=O)[C@H](Cc4c[nH]c5ccccc45)NC(=O)OC(C)(C)C)ccc23)cc1 [DTMB]
NO production (nitrite) [1]: reduced NO production in a concentration-dependent manner
inhibition of NO production compared between DTMB and known PPAR agonists [1]: inhibited NO production greater than treatment with the known agonists of PPARα and PPARγ
binding to PPARα LBD compared to WY14643 (pull-down) [3]: stronger binding to PPARα LBD than WY14643
level of cytokines (TNF-α, IL-1β, IL-6) induced by inflammatory signals (primary microglia): dramatically reduced
level of cytokines (TNF-α, IL-1β, IL-6) induced by inflammatory signals (BV2 microglia cells): dramatically reduced
Y-maze alternation (5xFAD mice): improvement with a percentage similar to that of the wild-type mouse group
